“And” between values parts separate entries of the source, which are not always exact repeats. Identical values can stand only once. Results filed as inconclusive are left out.
Test system: CD8F1 mice, subcutaneous mammary adenocarcinoma, T/C%
Test: NCI In Vivo Anticancer Drug Screen. Data for tumor model Mammary Adenocarcinoma CD8F1 (subcutaneous) in CD8F1
Conditions: higher = larger tumour
Summary of the method: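 Compound-treated versus vehicle-treated mice with transplantable tumors; survival or tumor size compared as T/C.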

[1] = endpoint: median tumor weight change, dose: 62.5 mg/kg/injection, schedule: Q01DX001 (ip), vehicle: saline with Tween-80
[2] = endpoint: median tumor weight change, dose: 125.0 mg/kg/injection, schedule: Q01DX001 (ip), vehicle: saline with Tween-80
[3] = endpoint: median tumor weight change, dose: 250.0 mg/kg/injection, schedule: Q01DX001 (ip), vehicle: saline with Tween-80
[4] = endpoint: median tumor weight (est.), dose: 3.12 mg/kg/injection, schedule: Q07DX005 (ip), vehicle: Klucel (hydroxypropylcellulose) (HPC)
[5] = endpoint: median tumor weight (est.), dose: 6.25 mg/kg/injection, schedule: Q07DX005 (ip), vehicle: Klucel (hydroxypropylcellulose) (HPC)
[6] = endpoint: median tumor weight (est.), dose: 25.0 mg/kg/injection, schedule: Q07DX005 (ip), vehicle: Klucel (hydroxypropylcellulose) (HPC)
[7] = endpoint: median tumor weight (est.), dose: 6.25 mg/kg/injection, schedule: Q07DX005 (ip), vehicle: saline
[8] = endpoint: median tumor weight (est.), dose: 12.5 mg/kg/injection, schedule: Q07DX005 (ip), vehicle: saline
[9] = endpoint: median tumor weight (est.), dose: 25.0 mg/kg/injection, schedule: Q07DX005 (ip), vehicle: saline
[10] = endpoint: median tumor weight (est.), dose: 50.0 mg/kg/injection, schedule: Q07DX005 (ip), vehicle: saline
[11] = endpoint: median tumor weight (est.), dose: 25.0 mg/kg/injection, schedule: Q07DX005 (ip), vehicle: saline with Tween-80
[12] = endpoint: median tumor weight (est.), dose: 100.0 mg/kg/injection, schedule: Q07DX005 (ip), vehicle: saline with Tween-80

In the case of O=CC(NC(=O)N(CCCl)N=O)C(O)C(O)C(O)CO (stereo not given), the T/C (endpoint: mean tumor weight, dose: 1.5 mg/kg/injection, schedule: Q02DX008 (ip), vehicle: saline) is reported as 58 % of control, the T/C (endpoint: mean tumor weight, dose: 3.0 mg/kg/injection, schedule: Q02DX008 (ip), vehicle: saline) is reported as 24 % of control and the T/C (endpoint: mean tumor weight, dose: 6.0 mg/kg/injection, schedule: Q02DX008 (ip), vehicle: saline) is reported as 31 % of control. For the same compound, the T/C (endpoint: median tumor weight (est.), dose: 1.5 mg/kg/injection, schedule: Q07DX005 (ip), vehicle: saline) was 175 % of control, the T/C (endpoint: median tumor weight (est.), dose: 3.0 mg/kg/injection, schedule: Q07DX005 (ip), vehicle: saline) was 107 % of control and the T/C (endpoint: median tumor weight (est.), dose: 6.0 mg/kg/injection, schedule: Q07DX005 (ip), vehicle: saline) was 53 % of control. The T/C (endpoint: median tumor weight (est.), dose: 12.0 mg/kg/injection, schedule: Q07DX005 (ip), vehicle: saline) was 14 % of control and the T/C (endpoint: median tumor weight (est.), dose: 24.0 mg/kg/injection, schedule: Q07DX005 (ip), vehicle: saline) was 13 % of control.

For O=C1CN(Cc2ccc3c(c2)OCO3)NO1, the T/C [1] was 80 % of control and 84 % of control, the T/C [2] was 113 % of control and 115 % of control and the T/C [3] was 80 % of control and 83 % of control. For the same compound, the T/C (endpoint: median tumor weight change, dose: 1000.0 mg/kg/injection, schedule: Q01DX001 (ip), vehicle: saline with Tween-80) was 88 % of control.

For N#CC(OC1OC(COC2OC(CO)C(O)C(O)C2O)C(O)C(O)C1O)c1ccccc1 (stereo not given), the T/C (endpoint: median tumor weight (est.), dose: 50.0 mg/kg/injection, schedule: Q07DX005 (ip), vehicle: water) was 71 % of control, the T/C (endpoint: median tumor weight (est.), dose: 100.0 mg/kg/injection, schedule: Q07DX005 (ip), vehicle: water) was 88 % of control and the T/C (endpoint: median tumor weight (est.), dose: 200.0 mg/kg/injection, schedule: Q07DX005 (ip), vehicle: water) was 112 % of control. The T/C (endpoint: median tumor weight (est.), dose: 400.0 mg/kg/injection, schedule: Q07DX005 (ip), vehicle: water) was 114 % of control and the T/C (endpoint: median tumor weight (est.), dose: 800.0 mg/kg/injection, schedule: Q07DX005 (ip), vehicle: water) was 82 % of control.

BrC[P+](CBr)(CBr)CBr was tested, and the T/C [2] was 124 % of control and the T/C [3] was 152 % of control.

Cc1cc(NCCCN(C)C)c2ccc3c(ccc4c(NCCCN(C)C)cc(C)nc43)c2n1 was tested, and the T/C (endpoint: median tumor weight change, dose: 3.9 mg/kg/injection, schedule: Q01DX001 (ip), vehicle: saline) was 87 % of control and the T/C (endpoint: median tumor weight change, dose: 7.81 mg/kg/injection, schedule: Q01DX001 (ip), vehicle: saline) was 98 % of control.

With CC(C)C(N)C(=O)Nc1nncs1 (stereo not given) the T/C (endpoint: median tumor weight change, dose: 125.0 mg/kg/injection, schedule: Q01DX001 (ip), vehicle: saline) was 119 % of control, the T/C (endpoint: median tumor weight change, dose: 250.0 mg/kg/injection, schedule: Q01DX001 (ip), vehicle: saline) was 171 % of control and the T/C (endpoint: median tumor weight change, dose: 500.0 mg/kg/injection, schedule: Q01DX001 (ip), vehicle: saline) was 82 % of control. The T/C (endpoint: median tumor weight change, dose: 1000.0 mg/kg/injection, schedule: Q01DX001 (ip), vehicle: saline) was 81 % of control.

In the case of N#CC(C#N)=C/C=C/c1cccc([N+](=O)[O-])c1, the T/C [4] is reported as 122 % of control, the T/C [5] is reported as 239 % of control and the T/C (endpoint: median tumor weight (est.), dose: 12.5 mg/kg/injection, schedule: Q07DX005 (ip), vehicle: Klucel (hydroxypropylcellulose) (HPC)) is reported as 169 % of control. For the same compound, the T/C [6] was 152 % of control.

In the case of COC1N(C2CC(O)C(CO)O2)C(=O)NC(=O)C1(F)Br (stereo not given), the T/C (endpoint: median tumor weight (est.), dose: 3.12 mg/kg/injection, schedule: Q07DX005 (ip), vehicle: saline) is reported as 74 % of control, the T/C [7] is reported as 54 % of control and the T/C (endpoint: median tumor weight (est.), dose: 6.25 mg/kg/injection, schedule: Q07DX005 (ip), vehicle: suspension in saline) is reported as 67 % of control. The T/C [8] was 28 % of control, the T/C (endpoint: median tumor weight (est.), dose: 12.5 mg/kg/injection, schedule: Q07DX005 (ip), vehicle: suspension in saline) was 113 % of control and the T/C [9] was 46 % of control. For the same compound, the T/C (endpoint: median tumor weight (est.), dose: 25.0 mg/kg/injection, schedule: Q07DX005 (ip), vehicle: suspension in saline) was 66 % of control, the T/C [10] was 28 % of control and the T/C (endpoint: median tumor weight (est.), dose: 50.0 mg/kg/injection, schedule: Q07DX005 (ip), vehicle: suspension in saline) was 45 % of control. For the same compound, the T/C (endpoint: median tumor weight (est.), dose: 100.0 mg/kg/injection, schedule: Q07DX005 (ip), vehicle: saline) was 5 % of control, the T/C (endpoint: median tumor weight (est.), dose: 100.0 mg/kg/injection, schedule: Q07DX005 (ip), vehicle: suspension in saline) was 45 % of control and the T/C (endpoint: median tumor weight (est.), dose: 200.0 mg/kg/injection, schedule: Q07DX005 (ip), vehicle: suspension in saline) was 57 % of control.

With CCCCCCCCCCCCSC1=C(Cl)C(=O)C(OC)=C(OC)C1=O the T/C [11] was 89 % of control and the T/C [12] was 70 % of control.

O=C(O)C1(C(=O)O)CCC1.[NH2-].[NH2-].[Pt+2] was tested, and the T/C (endpoint: median tumor weight change, dose: 6.25 mg/kg/injection, schedule: Q01DX001 (ip), vehicle: dextrose) was 98 % of control, the T/C (endpoint: median tumor weight change, dose: 12.5 mg/kg/injection, schedule: Q01DX001 (ip), vehicle: dextrose) was 80 % of control and the T/C (endpoint: median tumor weight change, dose: 25.0 mg/kg/injection, schedule: Q01DX001 (ip), vehicle: dextrose) was 52 % of control.

CC1=C(/C=C/C(C)=C/C=C/C(C)=C/C=O)C(C)(C)CCC1 was tested, and the T/C [1] was 104 % of control and the T/C [2] was 74 % of control.

In the case of C=C(C)C12CC(C)C34OC5(CCCCCCCC(C)C6C(C)C(OC(=O)c7ccccc7)C(O)(C(O)C7(COC(=O)CCCCCCCCCCCCCCC)OC7C3C1O5)C64)O2 (stereo not given), the T/C (endpoint: mean tumor weight, dose: 25.0 micrograms/kg/injection, schedule: Q01DX009 (ip), vehicle: Klucel (hydroxypropylcellulose) (HPC)) is reported as 82 % of control, the T/C (endpoint: mean tumor weight, dose: 50.0 micrograms/kg/injection, schedule: Q01DX009 (ip), vehicle: Klucel (hydroxypropylcellulose) (HPC)) is reported as 150 % of control and the T/C (endpoint: mean tumor weight, dose: 100.0 micrograms/kg/injection, schedule: Q01DX009 (ip), vehicle: Klucel (hydroxypropylcellulose) (HPC)) is reported as 114 % of control. The T/C (endpoint: mean tumor weight, dose: 200.0 micrograms/kg/injection, schedule: Q01DX009 (ip), vehicle: Klucel (hydroxypropylcellulose) (HPC)) was 151 % of control.

In the case of OC(C1CO1)C(O)C1CO1 (stereo not given), the T/C (endpoint: median tumor weight (est.), dose: 0.5 mg/kg/injection, schedule: Q07DX005 (ip), vehicle: saline) is reported as 49 % of control, the T/C (endpoint: median tumor weight (est.), dose: 1.0 mg/kg/injection, schedule: Q07DX005 (ip), vehicle: saline) is reported as 28 % of control and the T/C (endpoint: median tumor weight (est.), dose: 2.0 mg/kg/injection, schedule: Q07DX005 (ip), vehicle: saline) is reported as 37 % of control. For the same compound, the T/C (endpoint: median tumor weight (est.), dose: 4.0 mg/kg/injection, schedule: Q07DX005 (ip), vehicle: saline) was 13 % of control and the T/C (endpoint: median tumor weight (est.), dose: 8.0 mg/kg/injection, schedule: Q07DX005 (ip), vehicle: saline) was 5 % of control.

CC[C@@]1(O)C[C@H](OC2CC(N(C)C)C(OC3CC(O)C(O[C@@H]4O[C@@H](C)C(=O)C=C4N)C(C)O3)C(C)O2)c2c(cc3c(c2O)C(=O)c2c(O)ccc(O)c2C3=O)[C@H]1C(=O)OC (stereo not given in full) was tested, and the T/C (endpoint: median tumor weight (est.), dose: 0.09 mg/kg/injection, schedule: Q07DX005 (ip), vehicle: suspension in saline) was 180 % of control, the T/C (endpoint: median tumor weight (est.), dose: 0.18 mg/kg/injection, schedule: Q07DX005 (ip), vehicle: suspension in saline) was 168 % of control and the T/C (endpoint: median tumor weight (est.), dose: 0.37 mg/kg/injection, schedule: Q07DX005 (ip), vehicle: suspension in saline) was 240 % of control. The T/C (endpoint: median tumor weight (est.), dose: 0.38 mg/kg/injection, schedule: Q07DX005 (ip), vehicle: suspension in saline) was 37 % of control, the T/C (endpoint: median tumor weight (est.), dose: 3.0 mg/kg/injection, schedule: Q07DX005 (ip), vehicle: suspension in saline) was 50 % of control and 69 % of control and the T/C (endpoint: median tumor weight (est.), dose: 1.0 micrograms/kg/injection, schedule: Q07DX005 (ip), vehicle: Klucel (hydroxypropylcellulose) (HPC)) was 106 % of control. For the same compound, the T/C (endpoint: median tumor weight (est.), dose: 4.0 micrograms/kg/injection, schedule: Q07DX005 (ip), vehicle: Klucel (hydroxypropylcellulose) (HPC)) was 123 % of control.

In the case of COc1ccc2cc1Oc1ccc(cc1)C[C@H]1c3cc(c(OC)cc3CCN1C)Oc1c(OC)c(OC)cc3c1[C@H](C2)N(C)CC3, the T/C [11] is reported as 115 % of control, the T/C (endpoint: median tumor weight (est.), dose: 50.0 mg/kg/injection, schedule: Q07DX005 (ip), vehicle: saline with Tween-80) is reported as 102 % of control and the T/C [12] is reported as 117 % of control. The T/C (endpoint: median tumor weight (est.), dose: 200.0 mg/kg/injection, schedule: Q07DX005 (ip), vehicle: saline with Tween-80) was 64 % of control and the T/C (endpoint: median tumor weight (est.), dose: 400.0 mg/kg/injection, schedule: Q07DX005 (ip), vehicle: saline with Tween-80) was 37 % of control.

CC[N](CC)[Ge]([CH2]C)[CH2]C.CC[N](CC)[Ge]([CH2]C)[CH2]C was tested, and the T/C [7] was 116 % of control, the T/C [8] was 74 % of control and the T/C [9] was 124 % of control. For the same compound, the T/C [10] was 94 % of control.

With C1CCC2OCCOCCOC3CCCCC3OCCOCCOC2C1 (stereo not given) the T/C [4] was 90 % of control, the T/C [5] was 55 % of control and the T/C [6] was 70 % of control. The T/C (endpoint: median tumor weight (est.), dose: 50.0 mg/kg/injection, schedule: Q07DX005 (ip), vehicle: Klucel (hydroxypropylcellulose) (HPC)) was 83 % of control.

For O=C(Nc1cccc(Cl)c1)ON1C(=O)C2C(C1=O)C1(Cl)C(Cl)C(Cl)C2(Cl)C1(Cl)Cl (stereo not given), the T/C [1] was 112 % of control, the T/C [2] was 112 % of control and the T/C [3] was 95 % of control.

— PubChem BioAssay AID220 (DTP/NCI, 2004)
